Source: publication PMC7702721 (The AAPS journal, 2016)
Where two headings read alike, the source gives them in different places. Values belong to the compound of their own block, whether it stands above or below them.

Key:
[1] = Pharmacokinetic study in rats after oral administration of kaempferol; assay type: in vivo, Sprague–Dawley (SD) rats; conditions: for Cmax / MRT last / Tmax / AUC0-t / AUC0−∞ / MRT0-t: plasma; for AUC0−∞: predicted AUC
[2] = assay type: in vivo, FVB mice; conditions: oral kaempferol 10 mg/kg; for fold higher plasma Cmax and AUC0-t in absence of Bcrp versus wild-type: Bcrp1^−/− vs wild-type FVB mice
[3] = tested on: hepatic and intestinal S9 fractions; assay type: in vitro ADME, FVB mice; conditions: kaempferol 1.25 μM
[4] = tested on: hepatic and intestinal S9 fractions; assay type: in vitro ADME, FVB mice; conditions: kaempferol 0.125 μM
[5] = tested on: rat hepatic and segmental intestinal preparations; test: Kaempferol glucuronidation via rat hepatic and segmental intestinal microsomes; assay type: in vitro ADME, SD rats
[6] = tested on: rat hepatic and segmental intestinal preparations; test: Kaempferol sulfation via rat hepatic and segmental intestinal S9 fraction; assay type: in vitro ADME, SD rats; conditions: kaempferol 0.125, 0.5 and 1.25 μM, S9 fraction 0.02 mg/mL
[7] = ref [20]; cited from earlier work
[8] = In situ four-site rat intestinal perfusion of kaempferol
Caco-2 monolayer [9] = test: Transporter inhibition experiments in the Caco-2 monolayer; conditions: kaempferol 10 μM
Caco-2 monolayer [10] = test: Bidirectional efflux of kaempferol-glucuronides across the Caco-2 monolayer; assay type: in vitro ADME; conditions: 10 μM kaempferol loaded AP or BL, 2 h
[11] = rat, in vivo
[12] = male, Sprague-Dawley, rat, po, 10 mg/kg
[13] = male, Sprague-Dawley, rat, po, 20 mg/kg
[14] = male SD rats, oral kaempferol 10 mg/kg, n = 6
[15] = male SD rats, oral kaempferol 20 mg/kg, n = 6
[16] = perfusion with 5 μM or 20 μM kaempferol

- Cmax [1, 12]: 305 ± 106 nM
- MRT last [1, 12]: 0.437 h
- Tmax [1, 12]: 26.7 min
- Cmax [1, 13]: 647 ± 244 nM
- MRT last [1, 13]: 2.47 h
- Tmax [1, 13]: 18 min
- AUC0-t [1, 14]: 10.3 ± 3.8 µmol·min/L
- AUC0-t [1, 15]: 51.8 ± 17.2 µmol·min/L
- AUC0−∞ [1, 14]: 11.4 ± 3.7 µmol·min/L
- AUC0−∞ [1, 15]: 57.9 ± 13.6 µmol·min/L
- Cmax of kaempferol, times lower than that of K-3-G ([1]; rats, oral kaempferol): approximately 50 times
- Cmax of kaempferol, times lower than that of K-7-G ([1]; rats, oral kaempferol): ~16 times
- time to reach Cmax ([1]; rats, oral kaempferol): ≤ 30 min
- free kaempferol plasma concentration (below LLOQ) ([2]; at most periods, all strains of mice): < 3.9 nM
- increase of glucuronidation rate versus wild-type ([3]; liver S9, Bcrp1^−/− mice): 32%
- decrease of hepatic glucuronidation rate versus wild-type ([3]; liver S9, Mdr1a^−/− mice): ~30%
- decrease of hepatic glucuronidation rate versus wild-type ([3]; liver S9, Mrp1^−/− mice): ~ 26%
- decrease of hepatic glucuronidation rate versus wild-type ([3]; liver S9, Mrp2^−/− mice): ~ 11%
- decrease of sulfation rate versus wild-type ([4]; intestine S9, Mdr1a^−/− mice): ~47%
- decrease of sulfation rate versus wild-type ([4]; intestine S9, Mrp1^−/− mice): ~ 25%
- decrease of sulfation rate versus wild-type ([4]; intestine S9, Mrp2^−/− mice): ~79%
- decrease of sulfation rate versus wild-type ([4]; liver S9, Mdr1a^−/− mice): ~39%
- decrease of sulfation rate versus wild-type ([4]; liver S9, Mrp1^−/− mice): ~ 11%
- decrease of sulfation rate versus wild-type ([4]; liver S9, Mrp2^−/− mice): ~59%
- sulfation reaction rates by tissue [6]: highest reaction rates in liver
Structure (SMILES): O=c1c(O)c(-c2ccc(O)cc2)oc2cc(O)cc(O)c12 [Kaempferol, 3,4′,5,7-trihydroxyflavone]
- glucuronidation rates by segment ([5]; kaempferol 1.25, 2.5 and 10 μM, microsomes 0.00318 mg/mL): high and low glucuronidation rates were observed in the small intestine and colon, respectively
- bioavailability [7]: lower than 2%
- regional absorption of kaempferol [8, 16]: faster absorption in colon than in jejunum and ileum

- AUC0-t [1, 14]: 310 ± 95 µmol·min/L
- Cmax [1, 14]: 5290 ± 2970 nM
- MRT0-t [1, 14]: 126 ± 37 min
- Tmax [1, 14]: 17.5 ± 5.0 min
- AUC0-t [1, 15]: 802 ± 231 µmol·min/L
- Cmax [1, 15]: 9550 ± 3370 nM
- MRT0-t [1, 15]: 130 ± 43 min
- Tmax [1, 15]: 16.0 ± 5.5 min
- AUC0−∞ [1, 14]: 314 ± 96 µmol·min/L
- AUC0−∞ [1, 15]: 811 ± 311 µmol·min/L
- AUC0-t ([2]; Bcrp1^−/− FVB mice): 464 ± 234 µmol·min/L
- Cmax ([2]; Bcrp1^−/− FVB mice): 14.9 ± 3.6 µM
- MRT ([2]; Bcrp1^−/− FVB mice): 45.4 ± 22.3 min
- fold higher plasma Cmax and AUC0-t in absence of Bcrp versus wild-type [2]: > 4 fold
- AUC0-t ([2]; Mdr1a^−/− FVB mice): 63.1 ± 15.3 µmol·min/L
- Cmax ([2]; Mdr1a^−/− FVB mice): 1.12 ± 0.68 µM
- MRT ([2]; Mdr1a^−/− FVB mice): 244 ± 22 min
- AUC0-t ([2]; Mrp1^−/− FVB mice): 13.9 ± 12.0 µmol·min/L
- Cmax ([2]; Mrp1^−/− FVB mice): 0.839 ± 0.853 µM
- MRT ([2]; Mrp1^−/− FVB mice): 25.8 ± 16.6 min
- AUC0-t ([2]; Mrp2^−/− FVB mice): 392 ± 78 µmol·min/L
- Cmax ([2]; Mrp2^−/− FVB mice): 14.3 ± 4.8 µM
- MRT ([2]; Mrp2^−/− FVB mice): 90.9 ± 18.1 min
- AUC0-t ([2]; wild-type FVB mice): 114 ± 79 µmol·min/L
- Cmax ([2]; wild-type FVB mice): 2.91 ± 1.94 µM
- MRT ([2]; wild-type FVB mice): 81.3 ± 34.2 min
- glucuronide formation by liver microsomes, K-7-G versus K-3-G ([5]; rat liver microsomes): more K-7-G than K-3-G
- efflux toward the BL side compared with that toward the AP side (Caco-2 monolayer [10]): not more than twice higher
Structure (SMILES): O=C(O)[C@H]1O[C@@H](Oc2cc(O)c3c(=O)c(O)c(-c4ccc(O)cc4)oc3c2)[C@H](O)[C@@H](O)[C@@H]1O [K-7-G, kaempferol-7-glucuronide]
- amount of K-7-G in the perfusate compared with K-3-G ([8]; 20 μM perfusion): slightly higher than that of K-3-G in duodenum and jejunum, but was significantly higher in ileum and colon
- regional excretion of metabolite in the perfusate [8, 16]: highest excretion in duodenum and jejunum and the lowest excretion in colon

- AUC0-t [1, 14]: (1.74 ± 0.47) ×10^3 min•μmol/L
- Cmax [1, 14]: 24600 ± 7000 nM
- MRT0-t [1, 14]: 88.8 ± 14.0 min
- Tmax [1, 14]: 20.0 ± 8.9 min
- AUC0-t [1, 15]: (2.79 ± 0.33) ×10^3 min•μmol/L
- Cmax [1, 15]: 30900 ± 5500 nM
- MRT0-t [1, 15]: 114 ± 28 min
- Tmax [1, 15]: 24.0 ± 5.5 min
- AUC0−∞ [1, 14]: (1.76 ± 0.46) ×10^3 min•μmol/L
- AUC0−∞ [1, 15]: (2.81 ± 0.33) ×10^3 min•μmol/L
- AUC of K-3-G, times higher than that of K-7-G ([1]; rats, 10 mg/kg kaempferol): five
- AUC of K-3-G, times higher than that of K-7-S ([1]; rats, 10 mg/kg kaempferol): four
- Cmax and AUC of K-3-G relative to K-7-G ([1]; rats, oral kaempferol): threefold to fivefold higher
- AUC0-t ([2]; Bcrp1^−/− FVB mice): 848 ± 123 µmol·min/L
- Cmax ([2]; Bcrp1^−/− FVB mice): 18 ± 6.4 µM
- MRT ([2]; Bcrp1^−/− FVB mice): 97.3 ± 21.7 min
- fold higher plasma Cmax and AUC0-t in absence of Bcrp versus wild-type [2]: ~ 2 fold
- AUC0-t ([2]; Mdr1a^−/− FVB mice): 143 ± 83 µmol·min/L
- Cmax ([2]; Mdr1a^−/− FVB mice): 4.62 ± 1.14 µM
- MRT ([2]; Mdr1a^−/− FVB mice): 113 ± 71 min
- AUC0-t ([2]; Mrp1^−/− FVB mice): 38.0 ± 29.1 µmol·min/L
- Cmax ([2]; Mrp1^−/− FVB mice): 1.75 ± 1.18 µM
- MRT ([2]; Mrp1^−/− FVB mice): 33.4 ± 19.9 min
- AUC0-t ([2]; Mrp2^−/− FVB mice): (1.28 ± 0.27) ×10^3 min•μmol/L
- Cmax ([2]; Mrp2^−/− FVB mice): 32.3 ± 9.7 µM
- MRT ([2]; Mrp2^−/− FVB mice): 90.5 ± 11.0 min
- AUC0-t ([2]; wild-type FVB mice): 365 ± 195 µmol·min/L
- Cmax ([2]; wild-type FVB mice): 8.92 ± 1.69 µM
- MRT ([2]; wild-type FVB mice): 103 ± 29 min
- efflux toward the BL side compared with that toward the AP side (Caco-2 monolayer [10]): approximately six times higher
- detection in plasma during perfusion [11]: detected in plasma
Structure (SMILES): O=C(O)[C@H]1O[C@@H](Oc2c(-c3ccc(O)cc3)oc3cc(O)cc(O)c3c2=O)[C@H](O)[C@@H](O)[C@@H]1O [K-3-G, kaempferol-3-glucuronide]
- regional excretion of metabolite in the perfusate [8, 16]: highest excretion in duodenum and jejunum and the lowest excretion in colon

- Cmax [1, 12]: 332 ± 85 nM
- MRT last [1, 12]: 17.5 h
- Tmax [1, 12]: 1120 min
- Cmax [1, 13]: 703 ± 296 nM
- MRT last [1, 13]: 18.2 h
- Tmax [1, 13]: 912 min
- AUC0-t [1, 14]: 454 ± 90 µmol·min/L
- AUC0-t [1, 15]: (1.15 ± 0.22) ×10^3 min•μmol/L
- AUC0−∞ [1, 14]: 536 ± 164 µmol·min/L
- AUC0−∞ [1, 15]: (1.65 ± 0.56) ×10^3 min•μmol/L
- time after dose at which still detected in plasma ([1]; rats, oral kaempferol): 36 h
- AUC0-t ([2]; Bcrp1^−/− FVB mice): 156 ± 55 µmol·min/L
- AUC0-t ([2]; Mdr1a^−/− FVB mice): 36.7 ± 37.0 µmol·min/L
- AUC0-t ([2]; Mrp1^−/− FVB mice): 6.72 ± 5.83 µmol·min/L
- AUC0-t ([2]; Mrp2^−/− FVB mice): 102 ± 10 µmol·min/L
- Cmax ([2]; male, FVB, mouse, plasma, po, 10 mg/kg, Cmax, wild-type FVB mice): 0.301 ± 0.185 µM
- MRT ([2]; male, FVB, mouse, plasma, po, 10 mg/kg, MRT, wild-type FVB mice): 165 min
- AUC0-t ([2]; wild-type FVB mice): 49.5 ± 38.6 µmol·min/L
Structure (SMILES): O=c1c(O)c(-c2ccc(O)cc2)oc2cc(OS(=O)(=O)O)cc(O)c12 [K-7-S, kaempferol-7-sulfate]
- regional excretion of metabolite in the perfusate [8, 16]: highest excretion in colon and lowest excretion in ileum

Second part, the compound before the results:

Structure (SMILES): CN(C)C(=O)CCSC(SCCC(=O)O)c1cccc(/C=C/c2ccc3ccc(Cl)cc3n2)c1 (stereo not drawn) [MK571]
- effect on intracellular amounts of the three metabolites (Caco-2 monolayer [9]; MK571 10 μM): did not significantly influence
- effect on the three metabolites transported into BL side (Caco-2 monolayer [9]; MK571 10 μM): dramatically reduced
- effect on efflux rates of the three metabolites toward the BL side (Caco-2 monolayer [9]; MK571 10 μM, except K-7-G (AP to BL)): significantly lowered

Structure (SMILES): COc1ccc2c3c([nH]c2c1)[C@H](CC(C)C)N1C(=O)[C@H](CCC(=O)OC(C)(C)C)NC(=O)[C@@H]1C3 [Ko143]
- effect on bidirectional efflux rates and Fmet of the two glucuronides (Caco-2 monolayer [9]; Ko143 10 μM): significantly decreased
- effect on efflux rates and Fmet of K-7-S (Caco-2 monolayer [9]; Ko143 10 μM): No statistical differences

Structure (SMILES): CCCCC/C=C\C\C=C/C=C/C=C/[C@@H](SC[C@H](NC(=O)CC[C@H](N)C(=O)O)C(=O)NCC(=O)O)[C@@H](O)CCCC(=O)O [LTC4]
- effect on Fmet (BL to AP) of the three metabolites (Caco-2 monolayer [9]; LTC4 0.1 μM): decreased
- effect on intracellular amounts of K-3-G and K-7-G (AP to BL) (Caco-2 monolayer [9]; LTC4 0.1 μM): significantly increased
- effect on amounts of the three metabolites in the AP side (Caco-2 monolayer [9]; LTC4 0.1 μM, except K-7-S (AP to BL)): reduced
